Experimental data from PubChem BioAssay (NCI).
“And” between values parts separate entries of the source, which are not always exact repeats. Equal entries are not always repeated.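 Five concentrations, 48 hours, 96-well plates. GI50: concentration for 50% inhibition of growth. TGI: concentration producing complete growth inhibition.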 *1 amine or outer side, *2 acyl side, *3 side chain or, on linkers, in order; H or OH if unused. Where a SMILES comes first, the peptide text is derived from it. Bridges are numbered along the chain shown (N, C = ends). Roman numbers before positions name the chains, in order. [ ]: non-standard residue; d: D form. Actinocin(9to1) = Cc1c2oc3c(C)ccc(C(=O)[*:1])c3nc-2c(C(=O)[*:2])c(N)c1=O; NMeF = CN[CH](Cc1ccccc1)C(=O)O; Sar = CNCC(=O)O

Assays:
Test in all cases: NCI tumour cell line growth inhibition, 48 h
RXF-631 renal = test system: RXF-631 renal
SNB-78 CNS = test system: SNB-78 CNS
M19-MEL melanoma = test system: M19-MEL melanoma
DMS 114 small cell lung = test system: DMS 114 small cell lung
LXFL 529 NSCLC = test system: LXFL 529 NSCLC
KM20L2 colon = test system: KM20L2 colon
DLD-1 colon = test system: DLD-1 colon
XF 498 CNS = test system: XF 498 CNS
MDA-N = test system: MDA-N
P388/ADR leukemia = test system: P388/ADR leukemia

Row | SMILES | TGI (SNB-78 CNS) | TGI (M19-MEL melanoma) | TGI (DMS 114 small cell lung) | TGI (LXFL 529 NSCLC) | TGI (KM20L2 colon) | TGI (DLD-1 colon) | TGI (MDA-N) | also measured
1 | Cn1c(=O)c2/c(n(C)c1=O)=N\C=c1\c(=O)n(C)c(=O)n(C)\c1=N\C=2 | > 100 µM | > 100 µM | > 100 µM | > 100 µM | > 100 µM | > 100 µM |  | TGI (RXF-631 renal): > 100 µM
2 | Brc1cc2c(cc1Br)CN(c1ccccc1)C2 | > 100 µM | > 100 µM | > 100 µM | > 100 µM | > 100 µM | > 100 µM |  | TGI (XF 498 CNS): > 100 µM
3 | CCN(CC)C(=S)[S][Bi]([S]C(=S)N(CC)CC)[S]C(=S)N(CC)CC | 2.13 µM | 0.314 µM | 0.0444 µM | 0.275 µM | 1.23 µM | 0.208 µM | 2.04 µM | GI50 (MDA-N): 0.728 µM; GI50 (SNB-78 CNS): 0.598 µM; GI50 (M19-MEL melanoma): 0.162 µM; GI50 (DMS 114 small cell lung): 0.0193 µM; GI50 (LXFL 529 NSCLC): 0.142 µM; GI50 (KM20L2 colon): 0.128 µM; GI50 (DLD-1 colon): 0.0404 µM
4 | C[C@]12CCC(=O)C=C1CC[C@@H]1C2CC[C@]2(C)c3nn(-c4ccccc4)nc3CC12 (stereo partly specified) | > 100 µM | > 100 µM | > 100 µM | > 100 µM | > 100 µM | > 100 µM |  | TGI (XF 498 CNS): > 100 µM
5 | CN(C)CC/C(=N\Nc1ccc(Cl)cc1Cl)c1ccccc1 | 27.6 µM | 31.5 µM | 27.6 µM | 25.9 µM | 27.5 µM | 23.8 µM |  | 
6 | Oc1ccc(Cc2cc(Cl)cc(Cl)c2O)cc1Cl |  |  |  |  |  |  | 22.4 µM | 
7 | NNC(=O)C(=O)N/N=C(\CCC(=O)Nc1ccc(Cl)cc1)Cc1nc2ccccc2s1 | > 100 µM | 36.9 µM | 54.8 µM | > 100 µM | > 100 µM |  |  | 
8 | Cc1cccc2c(O)cc(=O)oc12 | > 100 µM | > 100 µM | > 100 µM | > 100 µM | > 100 µM | > 100 µM |  | TGI (XF 498 CNS): > 100 µM
9 | O=S1Nc2c(Cl)cc(Cl)c(Cl)c2S1 (stereo unspecified) | > 100 µM | > 100 µM | > 100 µM | > 100 µM | > 100 µM | > 100 µM |  | 
10 | O=C(O)C(Oc1nc(=S)[nH]c(=S)[nH]1)(c1ccc(Cl)cc1)c1ccc(Cl)cc1 |  |  |  |  |  |  | > 100 µM | 
11 | O=NN(CCCl)C(=O)NC1CCC(CC2CCC(NC(=O)N(CCCl)N=O)CC2)CC1 (stereo unspecified) | > 87.3 µM | > 100 µM | > 55.1 µM | > 100 µM | > 100 µM | > 62.4 µM |  | TGI (RXF-631 renal): > 100 µM; TGI (P388/ADR leukemia): 5.03 µM; TGI (XF 498 CNS): 19.8 µM
12 | OCCN1CCN(CC/C=C2/c3ccccc3Sc3ccc(Cl)cc32)CC1 | 30.2 µM | 4.09 µM | 30.5 µM | 17.9 µM | 5.4 µM | 26.4 µM |  | TGI (XF 498 CNS): 25.4 µM
13 | CCCCCCCCCCC(C)CCCCCCC(=O)O (stereo unspecified) | > 100 µM | > 100 µM | > 100 µM | > 100 µM |  | > 100 µM |  | TGI (RXF-631 renal): > 100 µM
14 | Cc1coc2c1C(OC(=O)C(C)C)C1(C)C(C)CCC(O)C1C2=O (stereo unspecified) |  |  |  |  |  |  | > 100 µM | 
15 | CC(=O)N/C(=C\c1ccc(Cc2nc3c([nH]2)C(=O)c2ccccc2C3=O)cc1)c1nc2c([nH]1)C(=O)c1ccccc1C2=O |  | > 100 µM | > 100 µM | > 100 µM | > 100 µM | > 100 µM |  | 
16 | Cc1c([N+](=O)[O-])oc2ccc3ccccc3c12 |  |  |  |  |  |  | > 100 µM | 
17 | CC(C)=CCCC(C)C1=C(O)C(=O)C(C)=CC1=O (stereo unspecified) |  |  |  |  |  |  | 21.7 µM | 
18 | Cc1c2oc3c(C)ccc(C(=O)NC4C(=O)NC(C(C)C)C(=O)N5CCCC5C(=O)N(C)CC(=O)N(C)C(Cc5ccccc5)C(=O)OC4C)c3nc-2c(C(=O)NC2C(=O)NC(C(C)C)C(=O)N3CCCC3C(=O)N(C)CC(=O)N(C)C(Cc3ccccc3)C(=O)OC2C)c(N)c1=O (stereo unspecified) (I: TVP[Sar][NMeF] / II: TVP[Sar][NMeF]; ester I:1-I:C, II:1-II:C; linker I:N-II:N via Actinocin(9to1); configuration not given here) |  |  |  |  |  |  | 0.0564 µM | GI50 (MDA-N): 0.00491 µM

Row | SMILES | TGI (SNB-78 CNS) | TGI (M19-MEL melanoma) | TGI (DMS 114 small cell lung) | TGI (LXFL 529 NSCLC) | TGI (KM20L2 colon) | TGI (DLD-1 colon) | TGI (MDA-N) | also measured
19 | CCN(CC)CC(=N)N(CC)c1ccccc1 | > 100 µM | > 100 µM | > 100 µM | > 100 µM | > 100 µM | > 100 µM |  | TGI (XF 498 CNS): > 100 µM
20 | O=C(/C=C\c1cccc2ccccc12)c1cccc2ccccc12 |  | 33.6 µM |  | 13.6 µM | 15 µM | 15.8 µM |  | GI50 (RXF-631 renal): 10.5 µM; TGI (RXF-631 renal): 26.4 µM; GI50 (LXFL 529 NSCLC): 2.9 µM; GI50 (KM20L2 colon): 3.96 µM; GI50 (DLD-1 colon): 3.43 µM
21 | O=C(NC(=O)c1ccccc1[N+](=O)[O-])Nc1ccc(Oc2ncc(Cl)cn2)c(C(F)(F)F)c1 | > 100 µM | > 100 µM |  | > 43.9 µM | < 0.0231 µM | > 100 µM |  | TGI (XF 498 CNS): 1.62 µM
22 | Oc1c(CN2CCN(c3ccccc3)CC2)cc(Br)c2cccnc12 |  |  |  |  |  |  | > 100 µM | 
23 | CC(=O)[O-].O=C([CH-]C(=O)c1ccccc1)c1ccccc1.O=C([CH-]C(=O)c1ccccc1)c1ccccc1.[Sm+3] |  |  |  |  | 36.5 µM |  |  | GI50 (KM20L2 colon): 7.33 µM
24 | C/C(=N\NC(=S)N(C)C)c1ccccn1 |  |  |  |  |  |  |  | GI50 (MDA-N): 0.178 µM
25 | C=CC1=C(C)C2=NC1=CC1=NC(=C(CC)/C1=C\O)C=C1N=C3C(=C1C)C(=O)[C@H](C(=O)OC)C3=C1NC(=C2)[C@@H](C)[C@@H]1CCC(=O)O |  |  |  |  |  |  | > 100 µM | 
26 | C/C=N\N1C(=O)c2ccccc2C1=O | > 100 µM | > 100 µM | > 100 µM | > 100 µM | > 100 µM | > 100 µM |  | TGI (RXF-631 renal): > 100 µM; TGI (XF 498 CNS): > 100 µM
27 | CNCCN=c1ccc2c3c1c(O)c1c(O)ccc(=O)c1c3[nH]n2CCNCCO | 10.5 µM | 2.72 µM and 1.13 µM | 2.91 µM and 0.834 µM |  | 6.7 µM and 12.2 µM and 1.51 µM | 11.6 µM and 11.9 µM and 19.6 µM | 2.7 µM | GI50 (P388/ADR leukemia): 0.751 µM; TGI (P388/ADR leukemia): 16.3 µM and 32.9 µM; GI50 (M19-MEL melanoma): 0.147 µM and 0.179 µM
28 | CC(=C/c1ccccc1)/C=C1/NC(=S)N(/C=C2\C(=O)Oc3ccccc3C2=O)C1=O |  |  |  |  |  |  | > 100 µM | 
29 | CC(C)=CC(=O)Cc1nc2ccc([N+](=O)[O-])cc2[nH]c1=O | > 100 µM | > 100 µM | > 100 µM | > 100 µM | > 100 µM | > 100 µM |  | TGI (XF 498 CNS): > 100 µM
30 | CCCCCCCCCCCCCCCCCC(=O)Nc1ccn(C2OC(CO)C(O)C2O)c(=O)n1 (stereo unspecified) | > 100 µM | > 100 µM |  | > 100 µM | > 100 µM | > 100 µM | > 100 µM | 
31 | COc1ccccc1C(=O)N(C)c1ccc(Cl)c(C(=O)OC(C)C)c1 |  |  |  |  |  |  | > 100 µM | 
32 | O=C(O)/C(=C\c1ccncc1)c1cccc2ccccc12 |  |  |  |  |  |  | > 100 µM | 
33 | CCc1cccc(C)c1NC(=O)CC1C(=O)Nc2ccccc2S1(=O)=O (stereo unspecified) | 53.7 µM | 38.9 µM | 34.1 µM | 37 µM | 34.2 µM | 40.4 µM |  | TGI (RXF-631 renal): 33 µM; TGI (XF 498 CNS): 26.2 µM
34 | O=C(O)c1cc2ccccc2c2c1C(=O)c1ccccc1-2 |  |  |  |  |  |  | > 100 µM | 
35 | CC(=O)[CH-]C(C)=O.CC(=O)[CH-]C(C)=O.CC[O-].CC[O-].[Ti+4] |  |  | > 100 µM | > 100 µM |  | > 100 µM |  | GI50 (DMS 114 small cell lung): > 100 µM; GI50 (LXFL 529 NSCLC): > 100 µM; GI50 (DLD-1 colon): > 100 µM
36 | N.N.O=P([O-])([O-])C1(P(=O)([O-])[O-])CCCCCN1.[Pt+2] | > 100 µM |  |  | > 100 µM | > 100 µM | > 100 µM |  | GI50 (SNB-78 CNS): 78.4 µM; GI50 (LXFL 529 NSCLC): > 100 µM; GI50 (KM20L2 colon): > 100 µM; GI50 (DLD-1 colon): > 100 µM
